Some test systems named below: A498; A549; CCRF-CEM; COLO 205; HT-29; IGROV-1; LOX IMVI; MOLT-4; OVCAR-4; OVCAR-5; OVCAR-8; RPMI-8226; SF-295; SK-MEL-28; SK-MEL-2; SK-OV-3; SNB-19; SW-620; U-251; UACC-257.
Holding throughout (experiment): inhibition of tumour cell growth, NCI panel, 48 h

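Tested at 5 concentrations; 48 h exposure; 96-well plates; endpoints linearly interpolated, else capped at highest concentration. GI50: concentration for 50% inhibition of growth.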 Active and inactive are the calls of the source. No stated cut-off is given here; in the data, active = GI50 up to about 1.1 µM and inactive = higher.

This note sets out measurements from ChEMBL document CHEMBL1201862, “PubChem BioAssay data set” (2004).

`Nc1c(S(=O)(=O)O)cc2cc(S(=O)(=O)O)ccc2c1/N=N/c1ccc(-c2ccc(/N=N/c3c(N)c(S(=O)(=O)O)cc4cc(S(=O)(=O)O)ccc34)c(S(=O)(=O)O)c2)cc1`: the GI50 was > 100 µM (inactive) in the assay with A498; > 83.4 µM (inactive) in the assay with A549; > 89.3 µM (inactive) in the assay on CCRF-CEM; > 100 µM (inactive) in the assay on COLO 205; > 100 µM (inactive) with HT-29; 54.7 µM (inactive) with IGROV-1. Moreover, the GI50 in the assay with LOX IMVI is > 100 µM (inactive); with MOLT-4, 95.7 µM (inactive); with OVCAR-4, 29.4 µM (inactive); in the assay with OVCAR-5 it was > 100 µM (inactive); with OVCAR-8, > 100 µM (inactive); with RPMI-8226, > 100 µM (inactive). The GI50 in the assay with SF-295, in the assay on SK-MEL-28, with SK-MEL-2, in the assay on SK-OV-3, in the assay with SNB-19 and in the assay with SW-620 was > 100 µM (inactive) throughout. Besides, the GI50 in the assay with U-251 and in the assay on UACC-257 was > 100 µM (inactive) each time.

Take `CSc1nc(SC)c2cnn(CC3CO3)c2n1` (stereo not given): the GI50 is 62.7 µM (inactive) in the assay with A498; 25.4 µM (inactive) with A549; 12.4 µM (inactive) with CCRF-CEM; 18.7 µM (inactive) with COLO 205; 22 µM (inactive) in the assay on HT-29; 19.4 µM (inactive) in the assay with IGROV-1. For the same compound, the GI50 in the assay on LOX IMVI is 7.59 µM (inactive); with MOLT-4, 2.17 µM (inactive); with OVCAR-4, 20.7 µM (inactive); in the assay on OVCAR-5, 17 µM (inactive); in the assay on OVCAR-8, 9.18 µM (inactive); in the assay on RPMI-8226, 35.1 µM (inactive). The GI50 in the assay on SF-295 is 24.6 µM (inactive); in the assay on SK-MEL-28, 13.9 µM (inactive); in the assay with SK-MEL-2 it was 16.7 µM (inactive); with SK-OV-3, 30.8 µM (inactive); with SNB-19 it was 31.2 µM (inactive); in the assay with SW-620, 11.6 µM (inactive). In addition, the GI50 was 19.1 µM (inactive) in the assay with U-251 and 19.2 µM (inactive) in the assay on UACC-257.

`COc1cccc2c1C(=O)c1c(O)c3c(c(O)c1C2=O)CC(O)(C(=O)CO)CC3OC1CC(N)C(I)C(C)O1` (stereo not given): the GI50 in the assay on A498 was 3.53 µM (inactive); in the assay on A549, 0.736 µM (active); with CCRF-CEM, 1.08 µM (active); with COLO 205 it was 13.3 µM (inactive); in the assay with HT-29 it was 3.15 µM (inactive); with IGROV-1 it was 1.88 µM (inactive). The GI50 was 1.45 µM (inactive) in the assay on LOX IMVI; 0.335 µM (active) in the assay on MOLT-4; 4.01 µM (inactive) in the assay with OVCAR-4; 13.5 µM (inactive) in the assay with OVCAR-5; 3.58 µM (inactive) in the assay on OVCAR-8; 4.5 µM (inactive) with RPMI-8226. The GI50 in the assay on SF-295 is 2.1 µM (inactive); in the assay with SK-MEL-28, 15.2 µM (inactive); in the assay on SK-MEL-2, 9.79 µM (inactive); in the assay on SK-OV-3, 3.98 µM (inactive); in the assay with SNB-19, 3.12 µM (inactive); in the assay on SW-620, 3.08 µM (inactive). Further, the figures for the GI50 in the assay with U-251 and in the assay with UACC-257 were 2.7 µM (inactive) and > 29.3 µM (inactive), respectively.
